Entries after “also recorded” stand apart in the source; their conditions may differ.
Legend:
[1] = system: Human Pancreatic Cancer Cells (Mia PaCa-2); test: Live cell fluorescence imaging; type: cell-based; conditions: 5 μM, 37° C., 30 min
Method: (§1) In these experiments, human carcinoma cells were incubated with AI-182
(§2) (5 μM) at 37° C. in the presence of 5% CO2 for 30 min, and examined using a Nikon Ti-E PFS inverted high resolution microscope equipped with a Nikon (Magnification: 20×) Plan APO objective, Prior H117 ProScan flat top linear encoded stage, and Prior Lumen 200PRO illumination system with standard DAPI and FITC filter sets. Top row: Live Cell Imaging of Human Glioblastoma (U87) Cells Using AI-182. Middle row: Live Cell Imaging of Human Pancreatic Cancer Cells (PANC1) Using AI-182. Bottom row: Live Cell Imaging of Human Pancreatic Cancer Cells (Mia PaCa-2) Using AI-182.

[2] = system: Human Glioblastoma (U87) Cells; test: Live cell fluorescence imaging; type: cell-based; conditions: 5 μM, 37° C., 30 min
Method: as §1, §2

[3] = system: Human Pancreatic Cancer Cells (PANC1); test: Live cell fluorescence imaging; type: cell-based; conditions: 5 μM, 37° C., 30 min
Method: as §1, §2

preformed Aβ1-42 fibrils = target: T1, preformed Aβ1-42 fibrils (Homo sapiens, UniProt P05067); test: Binding assay with preformed Aβ1-42 fibrils/aggregates in PBS (fluorescence); conditions: PBS
T1 construct: preformed Aβ1-42 fibrils
Excerpt: In some embodiments of the present teachings, binding assays to preformed fibrils or AD brain homogenate extracts can be performed using literature procedures (Klunk, W., et al. Uncharged thioflavin-T derivatives bind to amyloid-beta protein with high affinity and readily enter the brain. Life Sci 69, 1471-1484 (2001); Zhen, W., et al. Synthesis and amyloid binding properties of rhenium complexes: preliminary progress towards a reagent for SPECT imaging of Alzheimer's disease brain. J Med Chem 42, 2805-2815 (1999)). Prior to binding assays, the stock solution (2 μM) can be thawed. To aliquots of this stock solution, ^18F-AI-182 (also exemplified for either ^18F-AI-183 or ^18F-AI-187) can be added at various concentrations to a final concentration of 200 nM Aβ fibrils or 200 μL of AD brain extracts (20-25 μg). The aggregate-bound ^18F-AI-182 (or other analogues) can be collected on Whatman GF filters using Brandon M-24R cell harvester, washed, and counted in a γ-counter (Perkin Elmer). Inhibition constants (Ki) can be calculated as described previously (Han, H., Cho, C. & Lansbury, P. J. Technetium complexes for quantification of brain amyloid. J Am Chem Soc 118, 4506-4508 (1996)). Binding assay results can assist in evaluation of target specificity.
Binding assays of F-AI-182 with preformed Aβ1-42 aggregates were performed in PBS. […] Fluorescence was not observed using Aβ aggregates alone in PBS upon excitation at 410 nm (a negative control). […] Comparative analyses can be performed with other compounds such as AV-45, BAYER 94-9172, and AZD4694. An agent can be interacting with either of the two modestly high affinity binding sites (BS1& BS2) or recognizing an entirely new site on Aβ1-42. F-AI-182 can register different complementary binding sites in relation to Aβ-pathophysiology compared to current agents.

Hydrophobicity (log P) = type: physicochemical
Aβ plaques [4] = target: T2, Aβ plaques (Homo sapiens, UniProt P05067); test: Ex vivo staining of mouse brain sections; type: binding; conditions: 24 months
T2 construct: from tissue; host or cells: brain of APPsw+/-/PS1 (and APPsw+/-) transgenic mice: sections ex vivo, and live animals for multiphoton imaging
Method: FIG. 2 illustrates ex vivo staining studies were performed on brain sections (50 μm) of an APPsw^+/−/PS1 mouse (24 months old) and a control WT mouse (BL/6; 24 months old) using well-established procedures. Briefly, tissue sections were immunostained with mouse monoclonal antibody and visualized by donkey-anti-mouse HJ3.4 Aβ monoclonal antibody-Alexa 568 as a positive control. […] By comparison, no staining in WT mice was seen either with F-AI-182 or the antibody indicating the targeting specificity of F-AI-182. The slides were analyzed on a Zeiss LSM 5 PASCAL confocal system coupled to a Zeiss Axiovert 200 microscope.
The slides were analyzed using a Nikon Ti-E PFS inverted microscope equipped with a Nikon 10x 0.3 NA Plan APO objective, Prior H117 ProScan flat top linear encoded stage, and Prior Lumen 200PRO illumination system with standard DAPI and FITC filter sets. The images were acquired using a Photometrics CoolSNAP HQ2 digital camera and MetaMorph microscopy automaton, and imaging software. Images were processed and analyzed using the Image J software package (NIH).

Aβ plaques [5] = test: Staining of human AD brain tissue sections; type: binding; conditions: person with AD; 50 nM
Method: Staining experiments were performed with human brain tissues. Tissue samples were obtained from the frontal lobe of clinically and neuropathologically well-characterized cases. The neuropathological diagnosis of AD was based on the criteria of the Consortium to Establish a Registry for Alzheimer's Disease (CERAD) (Mirra, S., et al. The Consortium to Establish a Registry for Alzheimer's Disease (CERAD). Part II. Standardization of the neuropathologic assessment of Alzheimer's disease. Neurology 41, 479-486 (1991)) or the National Institute of Aging-Reagan Institute (NIA-RI) (Hyman, B. & Trojanowski, J. Consensus recommendations for the postmortem diagnosis of Alzheimer disease from the National Institute on Aging and the Reagan Institute Working Group on diagnostic criteria for the neuropathological assessment of Alzheimer disease. J Neuropathol Exp Neurol 56, 1095-1097. (1997)). […]
The fluorescent probe (F-AI-183) labels fibrillar amyloid (arrow). The slides were analyzed on a using a Nikon Ti-E PFS inverted microscope equipped with a Nikon 10×0.3 NA Plan APO objective, Prior H117 ProScan flat top linear encoded stage, and Prior Lumen 200PRO illumination system with standard DAPI and FITC filter sets. […] Images were processed and analyzed using the Image J software package (NIH).

Aβ plaques [6] = target: T2, Aβ plaques; test: Multiphoton imaging in live APP/PS1 mice; type: in vivo, mouse
Method: Prior to imaging, dextran-Texas Red was injected for mapping the blood vessels. Following labeling of blood vessels, F-AI-182 (2 mg/kg, dissolved in DMSO/PEG; 20:80) was intravenously injected. A z-stack image series was acquired from cortex surface to a depth of approx. 100 μm using microscope LSM 510META NLO (Carl-Zeiss Inc). […] The labeling of brain parenchymal plaques was visible within 10 min, indicating facile clearance from non-targeted regions and remained labeled for 30 min (FIG. 6). Multi-photon imaging can be done using ^18F-AI-182, other agents, or second generation agents (Bacskai, B., et al. Four-dimensional multiphoton imaging of brain entry, amyloid binding and clearance of an amyloid-3 ligand in transgenic mice. Proc Natl Acad Sci USA 100, 12462-12467 (2003)).

T2 sequence (P05067 672-713 limits assumed): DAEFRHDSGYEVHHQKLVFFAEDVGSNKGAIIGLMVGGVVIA
T1 sequence (P05067 672-713 limits assumed): as above

Kd (preformed Aβ1-42 fibrils; concentration dependent and saturable binding, read-out: binding constant (Kd) to preformed Aβ1-42 fibrils): 59 ± 7 nM | logP (Hydrophobicity (log P)): 1.2 | staining of brain sections of WT mice (Aβ plaques [4]; WT BL/6 mouse): no staining | time at which labeling of brain parenchymal plaques was visible (Aβ plaques [6]; live APP/PS1 mice): ≤ 10 min | time plaques remained labeled (Aβ plaques [6]; live APP/PS1 mice): 30 min
SMILES: CN(C)c1ccc(/C=C/c2nc3ccc(OCCF)cc3s2)cn1 [F-AI-182]
probe uptake in cells (fluorescence) [1]: accumulation of the probe within cells | probe uptake in cells (fluorescence) [2]: accumulation of the probe within cells | probe uptake in cells (fluorescence) [3]: accumulation of the probe within cells | fluorescence of 570 nm peak upon incubation with preformed Aβ(1-42) aggregates (preformed Aβ1-42 fibrils; excitation 410 nm): remarkable enhancement in the fluorescence | staining of plaques in hippocampus and cortical region of brain sections (Aβ plaques [4]; APPsw+/−/PS1 mice, 100 nM, 60 min): staining of both fibrillar and diffuse plaques; also recorded: stains both fibrillar and diffuse plaques; also recorded: abundant staining of fibrillar and diffuse plaques | staining of Aβ plaques in human AD brain sections (Aβ plaques [5]): detect both diffuse and compact AP plaques; also recorded: stains both fibrillar and diffuse plaques; also recorded: abundant staining of Aβ plaques | labeling of plaques in vivo by multi-photon microscopy (Aβ plaques [6]; live APPsw+/−/PS1 mice, 2 mg/kg i.v., 2 mg/kg): label plaques in brain parenchyma and blood vessels (CAA)

Reference: patent US10335504B2, “Heterocyclic molecules for biomedical imaging and therapeutic applications” (Washington University, priority 2013, dated 2019)
